In patent US9682026B2, “Oral care product and methods of use and manufacture thereof” (Colgate-Palmolive Company, priority 2008, dated 2017):

The compounds below were run on S. sanguis (assay: Ammonia production by S. sanguis at pH 4.0). Settings: 5 millimolar amino acid, 0.1% sucrose, pH 4.0, 37° C., 30 minutes; mean of 6 trials.
Type: cell-based
Experimental: An overnight culture of S. sanguis was grown at 37° C. in trypticase soy broth (Becton Dickinson, Sparks, Md.). The culture was centrifuged at 5,000 rpm for 5 minutes at 1 milliliter at a time into preweighed tubes in order to accumulate approximately 5 milligrams of wet pellet weight. The pellet was then resuspended into 20 millimolar potassium phosphate buffer (J T Baker, Phillipsburg, N.J.), pH 4.0, to simulate a stressed environment for the bacterial cell where ammonia would be produced for survival. The final concentration was 5 milligram per milliliter. To this final concentration, a 5 millimolar final concentration of L-arginine, L-citrulline, or L-ornithine was added along with a 0.1% final concentration of sucrose (VWR, West Chester, Pa.). This mixture was then incubated at 37° C. in a shaking water bath for 30 minutes before ammonia production was determined.
In order to analyze for ammonia, an Ammonia Assay kit was used from Diagnostic Chemicals Limited (Oxford, Conn.). The intended use of this specific kit is for the in vitro quantification of ammonia in plasma, but the procedure was modified in order to determine and quantify the ammonia production in plaque and/or bacteria.

| Structure (SMILES) | Ammonia (ppm), Mean |
| --- | --- |
| N=C(N)NCCC[C@H](N)C(=O)O [L-Arginine, L-arginine] | 1.06 ppm |
| NC(=O)NCCC[C@H](N)C(=O)O [L-Citrulline, L-citrulline] | 0.951 ppm |
| NCCC[C@H](N)C(=O)O [L-Ornithine, L-ornithine] | 0.134 ppm |
